Results published in patent US20240238242A1, “EGCG buccal tablet and use thereof” (priority 2023, published 2024).
Where two headings read alike, the source gives them in different places.

System: Novel enterovirus D68 (EV-D68)
Format: cell-based
Settings: for CPE test per cell well: first experiment; for CPE test (virus replication in cell wells) / CPE test (virus replication in the cell wells): wells 1-10; for average inactivation efficiency against virus: 0.2 mM EGCG, EV-D68 virus, three experiments

Question: How did the “CPE test per cell well” value (0.2 mM EGCG + EV-D68 virus, 1 minute, dilution factor 10^1, wells 1-10) turn out when O=C(O[C@@H]1Cc2c(O)cc(O)cc2O[C@@H]1c1cc(O)c(O)c(O)c1)c1cc(O)c(O)c(O)c1 [EGCG, Epigallocatechin gallate] was run?
Answer: The value was “+”.

Question: And the “CPE test per cell well” value (0.2 mM EGCG + EV-D68 virus, 1 minute, dilution factor 10^2, wells 1-10)?
Answer: Its value is “+”.

Question: What about the “CPE test per cell well” value (0.2 mM EGCG + EV-D68 virus, 1 minute, dilution factor 10^3, wells 1-10) of the same compound?
Answer: The value was “+”.

Question: And the “CPE test per cell well” value (0.2 mM EGCG + EV-D68 virus, 1 minute, dilution factor 10^4, wells 1-10)?
Answer: Its value is “+”.

Question: What about the “CPE test per cell well” value (0.2 mM EGCG + EV-D68 virus, 1 minute, dilution factor 10^5, wells 1-10) of the same compound?
Answer: The value was “+”.

Question: What about the “CPE test per cell well” value (0.2 mM EGCG + EV-D68 virus, 1 minute, dilution factor 10^6, wells 1-10) of the same compound?
Answer: Its value is “− and +”.

Question: What about the “CPE test per cell well” value (0.2 mM EGCG + EV-D68 virus, 1 minute, dilution factor 10^7, wells 1-10) of the same compound?
Answer: The value was “− and +”.

Question: And the “CPE test per cell well” value (0.2 mM EGCG + EV-D68 virus, 1 minute, dilution factor 10^8, wells 1-10)?
Answer: Its value is “−”.

Question: And the “CPE test (virus replication in cell wells)” value (0.2 mM EGCG + EV-D68 virus, co-incubated 5 minute, third experiment, dilution factor 10^1)?
Answer: Its value is “+”.

Question: What about the “CPE test (virus replication in cell wells)” value (0.2 mM EGCG + EV-D68 virus, co-incubated 5 minute, third experiment, dilution factor 10^2) of the same compound?
Answer: Its value is “+”.

Question: And the “CPE test (virus replication in cell wells)” value (0.2 mM EGCG + EV-D68 virus, co-incubated 5 minute, third experiment, dilution factor 10^3)?
Answer: Its value is “+”.

Question: And the “CPE test (virus replication in cell wells)” value (0.2 mM EGCG + EV-D68 virus, co-incubated 5 minute, third experiment, dilution factor 10^4)?
Answer: The value was “+”.

Question: What about the “CPE test (virus replication in cell wells)” value (0.2 mM EGCG + EV-D68 virus, co-incubated 5 minute, third experiment, dilution factor 10^5) of the same compound?
Answer: The value was “+”.

Question: And the “CPE test (virus replication in cell wells)” value (0.2 mM EGCG + EV-D68 virus, co-incubated 5 minute, third experiment, dilution factor 10^6)?
Answer: The value was “+ and −”.

Question: And the “CPE test (virus replication in cell wells)” value (0.2 mM EGCG + EV-D68 virus, co-incubated 5 minute, third experiment, dilution factor 10^7)?
Answer: The value was “−”.

Question: What about the “CPE test (virus replication in cell wells)” value (0.2 mM EGCG + EV-D68 virus, co-incubated 5 minute, third experiment, dilution factor 10^8) of the same compound?
Answer: Its value is “−”.

Question: What about the “CPE test (virus replication in cell wells)” value (0.2 mM EGCG + virus, 1 minute, dilution factor 10^1, second experiment) of the same compound?
Answer: The value was “+”.

Question: What about the “CPE test (virus replication in cell wells)” value (0.2 mM EGCG + virus, 1 minute, dilution factor 10^1, third experiment) of the same compound?
Answer: Its value is “+”.

Question: And the “CPE test (virus replication in cell wells)” value (0.2 mM EGCG + virus, 1 minute, dilution factor 10^2, second experiment)?
Answer: Its value is “+”.

Question: And the “CPE test (virus replication in cell wells)” value (0.2 mM EGCG + virus, 1 minute, dilution factor 10^2, third experiment)?
Answer: Its value is “+”.

Question: What about the “CPE test (virus replication in cell wells)” value (0.2 mM EGCG + virus, 1 minute, dilution factor 10^3, second experiment) of the same compound?
Answer: The value was “+”.

Question: What about the “CPE test (virus replication in cell wells)” value (0.2 mM EGCG + virus, 1 minute, dilution factor 10^3, third experiment) of the same compound?
Answer: Its value is “+”.

Question: What about the “CPE test (virus replication in cell wells)” value (0.2 mM EGCG + virus, 1 minute, dilution factor 10^4, second experiment) of the same compound?
Answer: The value was “+”.

Question: What about the “CPE test (virus replication in cell wells)” value (0.2 mM EGCG + virus, 1 minute, dilution factor 10^4, third experiment) of the same compound?
Answer: The value was “+”.

Question: And the “CPE test (virus replication in cell wells)” value (0.2 mM EGCG + virus, 1 minute, dilution factor 10^5, second experiment)?
Answer: Its value is “+”.

Question: What about the “CPE test (virus replication in cell wells)” value (0.2 mM EGCG + virus, 1 minute, dilution factor 10^5, third experiment) of the same compound?
Answer: Its value is “+”.

Question: What about the “CPE test (virus replication in cell wells)” value (0.2 mM EGCG + virus, 1 minute, dilution factor 10^6, second experiment) of the same compound?
Answer: The value was “− and +”.

Question: What about the “CPE test (virus replication in cell wells)” value (0.2 mM EGCG + virus, 1 minute, dilution factor 10^6, third experiment) of the same compound?
Answer: Its value is “− and +”.

Question: And the “CPE test (virus replication in cell wells)” value (0.2 mM EGCG + virus, 1 minute, dilution factor 10^7, second experiment)?
Answer: Its value is “− and +”.

Question: And the “CPE test (virus replication in cell wells)” value (0.2 mM EGCG + virus, 1 minute, dilution factor 10^7, third experiment)?
Answer: Its value is “− and +”.

Question: What about the “CPE test (virus replication in cell wells)” value (0.2 mM EGCG + virus, 1 minute, dilution factor 10^8, second experiment) of the same compound?
Answer: The value was “−”.

Question: What about the “CPE test (virus replication in cell wells)” value (0.2 mM EGCG + virus, 1 minute, dilution factor 10^8, third experiment) of the same compound?
Answer: The value was “−”.

Question: What about the “CPE test (virus replication in the cell wells)” value (0.2 mM EGCG + virus, co-incubated 5 minute, dilution factor 10^1, first experiment) of the same compound?
Answer: Its value is “+”.

Question: And the “CPE test (virus replication in the cell wells)” value (0.2 mM EGCG + virus, co-incubated 5 minute, dilution factor 10^1, second experiment)?
Answer: Its value is “+”.

Question: And the “CPE test (virus replication in the cell wells)” value (0.2 mM EGCG + virus, co-incubated 5 minute, dilution factor 10^2, first experiment)?
Answer: The value was “+”.

Question: And the “CPE test (virus replication in the cell wells)” value (0.2 mM EGCG + virus, co-incubated 5 minute, dilution factor 10^2, second experiment)?
Answer: The value was “+”.

Question: What about the “CPE test (virus replication in the cell wells)” value (0.2 mM EGCG + virus, co-incubated 5 minute, dilution factor 10^3, first experiment) of the same compound?
Answer: Its value is “+”.

Question: And the “CPE test (virus replication in the cell wells)” value (0.2 mM EGCG + virus, co-incubated 5 minute, dilution factor 10^3, second experiment)?
Answer: Its value is “+”.

Question: What about the “CPE test (virus replication in the cell wells)” value (0.2 mM EGCG + virus, co-incubated 5 minute, dilution factor 10^4, first experiment) of the same compound?
Answer: The value was “+”.

Question: And the “CPE test (virus replication in the cell wells)” value (0.2 mM EGCG + virus, co-incubated 5 minute, dilution factor 10^4, second experiment)?
Answer: The value was “+”.

Question: And the “CPE test (virus replication in the cell wells)” value (0.2 mM EGCG + virus, co-incubated 5 minute, dilution factor 10^5, first experiment)?
Answer: Its value is “+”.

Question: What about the “CPE test (virus replication in the cell wells)” value (0.2 mM EGCG + virus, co-incubated 5 minute, dilution factor 10^5, second experiment) of the same compound?
Answer: Its value is “+”.

Question: What about the “CPE test (virus replication in the cell wells)” value (0.2 mM EGCG + virus, co-incubated 5 minute, dilution factor 10^6, first experiment) of the same compound?
Answer: Its value is “− and +”.

Question: And the “CPE test (virus replication in the cell wells)” value (0.2 mM EGCG + virus, co-incubated 5 minute, dilution factor 10^6, second experiment)?
Answer: The value was “+ and −”.

Question: And the “CPE test (virus replication in the cell wells)” value (0.2 mM EGCG + virus, co-incubated 5 minute, dilution factor 10^7, first experiment)?
Answer: Its value is “−”.

Question: And the “CPE test (virus replication in the cell wells)” value (0.2 mM EGCG + virus, co-incubated 5 minute, dilution factor 10^7, second experiment)?
Answer: Its value is “−”.

Question: And the “CPE test (virus replication in the cell wells)” value (0.2 mM EGCG + virus, co-incubated 5 minute, dilution factor 10^8, first experiment)?
Answer: Its value is “−”.

Question: And the “CPE test (virus replication in the cell wells)” value (0.2 mM EGCG + virus, co-incubated 5 minute, dilution factor 10^8, second experiment)?
Answer: Its value is “−”.

Question: And the “average inactivation efficiency against virus” value (1 minute)?
Answer: The value was 12.30%.

Question: And the “average inactivation efficiency against virus” value (5 minutes)?
Answer: Its value is 35.78%.

Question: And the “CPE test per cell well” value (1 mM EGCG + EV-D68 virus, 1 minute, dilution factor 10^1, wells 1-10)?
Answer: Its value is “+”.

Question: What about the “CPE test per cell well” value (1 mM EGCG + EV-D68 virus, 1 minute, dilution factor 10^2, wells 1-10) of the same compound?
Answer: Its value is “+”.

Question: And the “CPE test per cell well” value (1 mM EGCG + EV-D68 virus, 1 minute, dilution factor 10^3, wells 1-10)?
Answer: Its value is “+”.

Question: And the “CPE test per cell well” value (1 mM EGCG + EV-D68 virus, 1 minute, dilution factor 10^4, wells 1-10)?
Answer: Its value is “+”.

Question: What about the “CPE test per cell well” value (1 mM EGCG + EV-D68 virus, 1 minute, dilution factor 10^5, wells 1-10) of the same compound?
Answer: Its value is “+”.

Question: And the “CPE test per cell well” value (1 mM EGCG + EV-D68 virus, 1 minute, dilution factor 10^6, wells 1-10)?
Answer: The value was “+ and −”.

Question: What about the “CPE test per cell well” value (1 mM EGCG + EV-D68 virus, 1 minute, dilution factor 10^7, wells 1-10) of the same compound?
Answer: Its value is “−”.

Question: And the “CPE test per cell well” value (1 mM EGCG + EV-D68 virus, 1 minute, dilution factor 10^8, wells 1-10)?
Answer: Its value is “−”.

Question: And the “CPE test (virus replication in cell wells)” value (1 mM EGCG + EV-D68 virus, co-incubated 5 minute, third experiment, dilution factor 10^1)?
Answer: The value was “+”.

Question: What about the “CPE test (virus replication in cell wells)” value (1 mM EGCG + EV-D68 virus, co-incubated 5 minute, third experiment, dilution factor 10^2) of the same compound?
Answer: Its value is “+”.

Question: And the “CPE test (virus replication in cell wells)” value (1 mM EGCG + EV-D68 virus, co-incubated 5 minute, third experiment, dilution factor 10^3)?
Answer: Its value is “+”.

Question: And the “CPE test (virus replication in cell wells)” value (1 mM EGCG + EV-D68 virus, co-incubated 5 minute, third experiment, dilution factor 10^4)?
Answer: Its value is “+”.

Question: What about the “CPE test (virus replication in cell wells)” value (1 mM EGCG + EV-D68 virus, co-incubated 5 minute, third experiment, dilution factor 10^5) of the same compound?
Answer: The value was “+”.

Question: And the “CPE test (virus replication in cell wells)” value (1 mM EGCG + EV-D68 virus, co-incubated 5 minute, third experiment, dilution factor 10^6)?
Answer: The value was “+ and −”.

Question: And the “CPE test (virus replication in cell wells)” value (1 mM EGCG + EV-D68 virus, co-incubated 5 minute, third experiment, dilution factor 10^7)?
Answer: The value was “−”.

Question: What about the “CPE test (virus replication in cell wells)” value (1 mM EGCG + EV-D68 virus, co-incubated 5 minute, third experiment, dilution factor 10^8) of the same compound?
Answer: The value was “−”.

Question: What about the “CPE test (virus replication in cell wells)” value (1 mM EGCG + virus, 1 minute, dilution factor 10^1, second experiment) of the same compound?
Answer: Its value is “+”.

Question: And the “CPE test (virus replication in cell wells)” value (1 mM EGCG + virus, 1 minute, dilution factor 10^1, third experiment)?
Answer: The value was “+”.

Question: What about the “CPE test (virus replication in cell wells)” value (1 mM EGCG + virus, 1 minute, dilution factor 10^2, second experiment) of the same compound?
Answer: Its value is “+”.

Question: And the “CPE test (virus replication in cell wells)” value (1 mM EGCG + virus, 1 minute, dilution factor 10^2, third experiment)?
Answer: Its value is “+”.

Question: And the “CPE test (virus replication in cell wells)” value (1 mM EGCG + virus, 1 minute, dilution factor 10^3, second experiment)?
Answer: The value was “+”.

Question: And the “CPE test (virus replication in cell wells)” value (1 mM EGCG + virus, 1 minute, dilution factor 10^3, third experiment)?
Answer: Its value is “+”.

Question: And the “CPE test (virus replication in cell wells)” value (1 mM EGCG + virus, 1 minute, dilution factor 10^4, second experiment)?
Answer: The value was “+”.
